Measured values published in patent publication US10064873B2, “Compounds and compositions for treating HIV with derivatives of Betulin” (GlaxoSmithKline LLC, priority 2011, dated 2018).
Where two headings read alike, the source gives them in different places.

Legend:
HIV NL4-3 wt = experiment: MT4 antiviral assay, NL4-3 strain wild type; assay type: cell-based, HIV-1; details: Human immunodeficiency virus 1, NL43, MT4 cells
HIV [1] = experiment: Standard PBMC assay (0% human serum); assay type: cell-based; details: Human immunodeficiency virus 1, PBMC, 168 h, PBMCs, 7 days
Experimental: Following incubation in both the standard and modified assays, supernatants were assayed for reverse transcriptase (RT) activity and p24 antigen content by ELISA and spectrophotometric analysis at 450 nM.

[2] = tested on: NL4-3 strain with V370A site directed mutant polymorphism; experiment: MT4 antiviral assay, NL4-3 strain with V370A site directed mutant polymorphism; assay type: cell-based, HIV-1; details: Human immunodeficiency virus 1, NL43, MT4 cells
HIV [3] = details: cited from earlier work
HIV-1 strain JR-CSF = experiment: Modified PBMC (PBL) assay with human serum titration; assay type: cell-based
Experimental: In this assay, 8×10^6 cells from pooled donors were incubated with virus for 1 hour, followed by centrifugation for 1 hour. Cells were then gently re-suspended and incubated an additional 2 hours.

Q: With `C=C(C)[C@@H]1CC[C@]2(C(=O)O)CC[C@]3(C)[C@H](CC[C@@H]4[C@@]5(C)CC[C@H](OC(=O)CC(C)(C)C(=O)O)C(C)(C)[C@@H]5CC[C@]43C)[C@@H]12` [Bevirimat] as the compound, how does the EC50 (HIV NL4-3 wt; Consensus Clade B Sp1 Genotype, read-out: MT4 NL. wt* EC50) read?
A: 223 nM

Q: What about the EC50 (HIV NL4-3 wt; read-out: EC50, MT4 antiviral assay NL4-3 strain / HIV wild type potency) of the same compound?
A: 223 nM

Q: What about the IC50 (HIV [1]) of the same compound?
A: 9.76 nM

Q: What about the EC50 ([2]; read-out: EC50, MT4 antiviral assay NL4-3 strain with V370A polymorphism) of the same compound?
A: 6060 nM

Q: What about the EC50 ([2]; read-out: MT4 NL. V370A EC50) of the same compound?
A: 6060 nM

Q: What about the Cmin target (HIV [3]; clinical, McCallister et al. poster 2008) of the same compound?
A: > 20000 ng/mL

Q: What about the “mean reduction of HIV viral load” value (HIV [3]; patients with trough levels >=20 μg/mL and no baseline Gag polymorphisms at Q369, V370 or T371) of the same compound?
A: 1.3 log10/mL

Q: What about the “effect of human serum on IC50 values” (HIV-1 strain JR-CSF; 10-40% human serum vs standard assay) of the same compound?
A: large increase in the IC50 values

Q: And the IC50 (HIV-1 strain JR-CSF; Human immunodeficiency virus 1, PBMC, 10%, 20%, 30% and 40% human serum, unit mM, read-out: IC50 in the presence of human serum)?
A: 0.00138 to 0.013 mM

Q: What about the “fold change in the IC50 value in the presence of 100% serum” value (HIV-1 strain JR-CSF; extrapolated, compared to control experiment) of the same compound?
A: 2,310 fold
